Legend:
Assay in all cases: relative viability (nuclei count vs DMSO), 5 days (fraction); higher = more cells survive
[1] = system: NCI-H1915
Procedure, shortened: (§1)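 Relative viability divides the nuclei count in treated wells by that in vehicle wells. Lung cancer cell lines were seeded in 1536-well plates, dosed by pin tool the next day, and fixed and stained after 5 days in one step with final 0.05% Triton X-100, 1% formaldehyde and 1 ug/ml Hoechst. Dosing was a single drug or a fixed anchor-drug dose plus five library-drug doses (not always all listed) in √10 steps, and values are medians of duplicate plates imaged at 4×.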

[2] = system: LC-2-ad
Procedure, shortened: as §1

[3] = system: HCC-15
Procedure, shortened: as §1

[4] = system: NCI-H1993
Procedure, shortened: as §1

[5] = system: NCI-H2023
Procedure, shortened: as §1

[6] = system: NCI-H2085
Procedure, shortened: as §1

[7] = system: COR-L23
Procedure, shortened: as §1

[8] = system: NCI-H650
Procedure, shortened: as §1

[9] = system: NCI-H1651
Procedure, shortened: as §1

[10] = system: UMC-11
Procedure, shortened: as §1

[11] = system: NCI-H2126
Procedure, shortened: as §1

[12] = system: ABC-1
Procedure, shortened: as §1

[13] = system: NCI-H838
Procedure, shortened: as §1

[14] = system: NCI-H358
Procedure, shortened: as §1

[15] = system: PC-14
Procedure, shortened: as §1

[16] = system: NCI-H2342
Procedure, shortened: as §1

[17] = system: LU99A
Procedure, shortened: as §1

[18] = system: NCI-H2347
Procedure, shortened: as §1

[19] = system: EPLC-272H
Procedure, shortened: as §1

[20] = system: NCI-H1355
Procedure, shortened: as §1

[21] = system: SW 1573
Procedure, shortened: as §1

[22] = system: HARA
Procedure, shortened: as §1

`O=C(O)c1ccc(-c2c[nH]c3ncc(-c4ccccc4)cc23)cc1C1CCCC1` + CCNC(=O)c1noc(-c2cc(C(C)C)c(O)cc2O)c1-c1ccc(CN2CCOCC2)cc1 [Luminespib] (partner 0.01 µM) gave a relative viability ([1]; first compound 0.04 µM) of 0.784, a relative viability ([1]; first compound 0.1265 µM) of 0.714 and a relative viability ([1]; first compound 0.4 µM) of 0.643. It also gave a relative viability ([1]; first compound 1.265 µM) of 0.506, a relative viability ([2]; first compound 0.04 µM) of 0.874 and a relative viability ([2]; first compound 0.1265 µM) of 1.08. The relative viability ([2]; first compound 0.4 µM) was 0.822, the relative viability ([2]; first compound 1.265 µM) was 0.566 and the relative viability ([3]; first compound 0.04 µM) was 0.266. It also gave a relative viability ([3]; first compound 0.1265 µM) of 0.384, a relative viability ([3]; first compound 0.4 µM) of 0.265 and a relative viability ([3]; first compound 1.265 µM) of 0.192. For the same compound, the relative viability ([4]; first compound 0.04 µM) was 0.912, the relative viability ([4]; first compound 0.1265 µM) was 0.831 and the relative viability ([4]; first compound 0.4 µM) was 0.795. The relative viability ([4]; first compound 1.265 µM) was 0.612, the relative viability ([5]; first compound 0.04 µM) was 0.694 and the relative viability ([5]; first compound 0.1265 µM) was 1.01. For the same compound, the relative viability ([5]; first compound 0.4 µM) was 0.75, the relative viability ([5]; first compound 1.265 µM) was 0.34 and the relative viability ([6]; first compound 0.04 µM) was 0.441. For the same compound, the relative viability ([6]; first compound 0.1265 µM) was 0.422, the relative viability ([6]; first compound 0.4 µM) was 0.488 and the relative viability ([6]; first compound 1.265 µM) was 0.31. It also gave a relative viability ([7]; first compound 0.04 µM) of 0.656, a relative viability ([7]; first compound 0.1265 µM) of 0.742 and a relative viability ([7]; first compound 0.4 µM) of 0.612. For the same compound, the relative viability ([7]; first compound 1.265 µM) was 0.407, the relative viability ([8]; first compound 0.04 µM) was 0.866 and the relative viability ([8]; first compound 0.1265 µM) was 0.861. The relative viability ([8]; first compound 0.4 µM) was 0.757, the relative viability ([8]; first compound 1.265 µM) was 0.293 and the relative viability ([9]; first compound 0.04 µM) was 0.927. The relative viability ([9]; first compound 0.1265 µM) was 0.863, the relative viability ([9]; first compound 0.4 µM) was 0.6 and the relative viability ([9]; first compound 1.265 µM) was 0.638. For the same compound, the relative viability ([10]; first compound 0.04 µM) was 0.919, the relative viability ([10]; first compound 0.1265 µM) was 1.05 and the relative viability ([10]; first compound 0.4 µM) was 0.974. For the same compound, the relative viability ([10]; first compound 1.265 µM) was 0.738, the relative viability ([11]; first compound 0.04 µM) was 0.937 and the relative viability ([11]; first compound 0.1265 µM) was 0.955. For the same compound, the relative viability ([11]; first compound 0.4 µM) was 0.796, the relative viability ([11]; first compound 1.265 µM) was 0.619 and the relative viability ([12]; first compound 0.1265 µM) was 0.572. The relative viability ([12]; first compound 1.265 µM) was 0.509, the relative viability ([13]; first compound 0.04 µM) was 0.315 and the relative viability ([13]; first compound 0.1265 µM) was 0.266. It also gave a relative viability ([13]; first compound 0.4 µM) of 0.26, a relative viability ([13]; first compound 1.265 µM) of 0.287 and a relative viability ([14]; first compound 0.04 µM) of 0.45. The relative viability ([14]; first compound 0.1265 µM) was 0.192, the relative viability ([14]; first compound 0.4 µM) was 0.249 and the relative viability ([14]; first compound 1.265 µM) was 0.165. The relative viability ([15]; first compound 0.04 µM) was 0.225, the relative viability ([15]; first compound 0.1265 µM) was 0.129 and the relative viability ([15]; first compound 0.4 µM) was 0.141. It also gave a relative viability ([15]; first compound 1.265 µM) of 0.134, a relative viability ([16]; first compound 0.04 µM) of 0.773 and a relative viability ([16]; first compound 0.1265 µM) of 0.715. For the same compound, the relative viability ([16]; first compound 0.4 µM) was 0.758, the relative viability ([16]; first compound 1.265 µM) was 0.678 and the relative viability ([17]; first compound 0.04 µM) was 0.259. The relative viability ([17]; first compound 0.1265 µM) was 0.254, the relative viability ([17]; first compound 0.4 µM) was 0.244 and the relative viability ([17]; first compound 1.265 µM) was 0.273. For the same compound, the relative viability ([18]; first compound 0.04 µM) was 0.444, the relative viability ([18]; first compound 0.1265 µM) was 0.794 and the relative viability ([18]; first compound 0.4 µM) was 0.275. It also gave a relative viability ([18]; first compound 1.265 µM) of 0.408, a relative viability ([19]; first compound 0.04 µM) of 0.628 and a relative viability ([19]; first compound 0.1265 µM) of 0.367. For the same compound, the relative viability ([19]; first compound 0.4 µM) was 0.21, the relative viability ([19]; first compound 1.265 µM) was 0.0951 and the relative viability ([20]; first compound 0.04 µM) was 0.692. It also gave a relative viability ([20]; first compound 0.1265 µM) of 0.622, a relative viability ([20]; first compound 0.4 µM) of 0.464 and a relative viability ([20]; first compound 1.265 µM) of 0.384. The relative viability ([21]; first compound 0.04 µM) was 0.563, the relative viability ([21]; first compound 0.1265 µM) was 0.486 and the relative viability ([21]; first compound 0.4 µM) was 0.292. It also gave a relative viability ([21]; first compound 1.265 µM) of 0.383, a relative viability ([22]; first compound 0.04 µM) of 0.767 and a relative viability ([22]; first compound 0.1265 µM) of 0.748. The relative viability ([22]; first compound 0.4 µM) was 0.141 and the relative viability ([22]; first compound 1.265 µM) was 0.418.

From the supplement of paper PMC10307832
